Measured values from US20230016424A1, “HYBRID AMIDE DERIVATIVES OF AMPHOTERICIN B” (The Board of Trustees of the University of Illinois, priority 2019, published 2023).

What follows are molecules tested on C. albicans SN250, C. albicans, C. krusei, C. glabrata, C. tropicalis, A. fumigatus 91, 1163, 1100 (assay: Average MIC over the tested strains). Conditions: Table 7, C16 amide AmB variants.
Format: cell-based

| Structure (SMILES) | MIC (Average Minimum Inhibition Concentration) |
| --- | --- |
| CC1C=CC=CC=CC=CC=CC=CC=CC(OC2OC(C)C(O)C(N)C2O)CC2OC(O)(CC(O)CC(O)C(O)CCC(O)CC(O)CC(=O)OC(C)C(C)C1O)CC(O)C2C(=O)NC(CO)C(N)=O (stereo not drawn) [FN] | 0.238 µM |
| CC1C=CC=CC=CC=CC=CC=CC=CC(OC2OC(C)C(O)C(N)C2O)CC2OC(O)(CC(O)CC(O)C(O)CCC(O)CC(O)CC(=O)OC(C)C(C)C1O)CC(O)C2C(=O)NCCC#N (stereo not drawn) [EK] | 0.438 µM |
| CC1C=CC=CC=CC=CC=CC=CC=CC(OC2OC(C)C(O)C(N)C2O)CC2OC(O)(CC(O)CC(O)C(O)CCC(O)CC(O)CC(=O)OC(C)C(C)C1O)CC(O)C2C(=O)NC(CO)CO (stereo not drawn) [DD] | 0.375 µM |
| CC1C=CC=CC=CC=CC=CC=CC=CC(OC2OC(C)C(O)C(N)C2O)CC2OC(O)(CC(O)CC(O)C(O)CCC(O)CC(O)CC(=O)OC(C)C(C)C1O)CC(O)C2C(=O)NC(CO)C(N)=O (stereo not drawn) [GF] | 0.324 µM |
| CC1C=CC=CC=CC=CC=CC=CC=CC(OC2OC(C)C(O)C(N)C2O)CC2OC(O)(CC(O)CC(O)C(O)CCC(O)CC(O)CC(=O)OC(C)C(C)C1O)CC(O)C2C(=O)NCC(C)(C)F (stereo not drawn) [EN] | 0.469 µM |
| CC1C=CC=CC=CC=CC=CC=CC=CC(OC2OC(C)C(O)C(N)C2O)CC2OC(O)(CC(O)CC(O)C(O)CCC(O)CC(O)CC(=O)OC(C)C(C)C1O)CC(O)C2C(=O)NC1C(O)COC(O)C1O (mixture of isomers) [GE] | 0.320 µM |
| CC1C=CC=CC=CC=CC=CC=CC=CC(OC2OC(C)C(O)C(N)C2O)CC2OC(O)(CC(O)CC(O)C(O)CCC(O)CC(O)CC(=O)OC(C)C(C)C1O)CC(O)C2C(=O)N1CCC(N)C1 (stereo not drawn) [FE] | 0.531 µM |
| CNC(=O)C1C(O)CC2(O)CC(O)CC(O)C(O)CCC(O)CC(O)CC(=O)OC(C)C(C)C(O)C(C)C=CC=CC=CC=CC=CC=CC=CC(OC3OC(C)C(O)C(N)C3O)CC1O2 (stereo not drawn) [GI] | 0.336 µM |
| CC1C=CC=CC=CC=CC=CC=CC=CC(OC2OC(C)C(O)C(N)C2O)CC2OC(O)(CC(O)CC(O)C(O)CCC(O)CC(O)CC(=O)OC(C)C(C)C1O)CC(O)C2C(=O)NC1CCCC1O (mixture of isomers) [EV] | 0.500 µM |
| CC1C=CC=CC=CC=CC=CC=CC=CC(OC2OC(C)C(O)C(N)C2O)CC2OC(O)(CC(O)CC(O)C(O)CCC(O)CC(O)CC(=O)OC(C)C(C)C1O)CC(O)C2C(=O)NC(CC(N)=O)C(N)=O (stereo not drawn) [FZ] | 0.316 µM |
| CC1C=CC=CC=CC=CC=CC=CC=CC(OC2OC(C)C(O)C(N)C2O)CC2OC(O)(CC(O)CC(O)C(O)CCC(O)CC(O)CC(=O)OC(C)C(C)C1O)CC(O)C2C(=O)NC1CCNC1=O (stereo not drawn) [GC] | 0.320 µM |
| COC(=O)C(CCCNC(=N)N)NC(=O)C1C(O)CC2(O)CC(O)CC(O)C(O)CCC(O)CC(O)CC(=O)OC(C)C(C)C(O)C(C)C=CC=CC=CC=CC=CC=CC=CC(OC3OC(C)C(O)C(N)C3O)CC1O2 (stereo not drawn) [DQ] | 0.406 µM |
| CC1C=CC=CC=CC=CC=CC=CC=CC(OC2OC(C)C(O)C(N)C2O)CC2OC(O)(CC(O)CC(O)C(O)CCC(O)CC(O)CC(=O)OC(C)C(C)C1O)CC(O)C2C(=O)NC1CNC1=O (stereo not drawn) [ES] | 0.484 µM |
| CC1C=CC=CC=CC=CC=CC=CC=CC(OC2OC(C)C(O)C(N)C2O)CC2OC(O)(CC(O)CC(O)C(O)CCC(O)CC(O)CC(=O)OC(C)C(C)C1O)CC(O)C2C(=O)NC1C(CO)OC(n2cnc3c(N)ncnc32)C1O (mixture of isomers) [EA] | 0.422 µM |
| CC1C=CC=CC=CC=CC=CC=CC=CC(OC2OC(C)C(O)C(N)C2O)CC2OC(O)(CC(O)CC(O)C(O)CCC(O)CC(O)CC(=O)OC(C)C(C)C1O)CC(O)C2C(=O)NC1CN(C(N)=O)C1 (stereo not drawn) [FB] | 0.516 µM |
| CC1C=CC=CC=CC=CC=CC=CC=CC(OC2OC(C)C(O)C(N)C2O)CC2OC(O)(CC(O)CC(O)C(O)CCC(O)CC(O)CC(=O)OC(C)C(C)C1O)CC(O)C2C(=O)NC1CCCC(O)C1 (stereo not drawn) [GM] | 0.344 µM |
| COC(=O)C1(NC(=O)C2C(O)CC3(O)CC(O)CC(O)C(O)CCC(O)CC(O)CC(=O)OC(C)C(C)C(O)C(C)C=CC=CC=CC=CC=CC=CC=CC(OC4OC(C)C(O)C(N)C4O)CC2O3)CNC1 (stereo not drawn) [FC] | 0.516 µM |
| CC1C=CC=CC=CC=CC=CC=CC=CC(OC2OC(C)C(O)C(N)C2O)CC2OC(O)(CC(O)CC(O)C(O)CCC(O)CC(O)CC(=O)OC(C)C(C)C1O)CC(O)C2C(=O)NCC(C)(C)C(N)=O (stereo not drawn) [EC] | 0.422 µM |
| CC1C=CC=CC=CC=CC=CC=CC=CC(OC2OC(C)C(O)C(N)C2O)CC2OC(O)(CC(O)CC(O)C(O)CCC(O)CC(O)CC(=O)OC(C)C(C)C1O)CC(O)C2C(=O)NCCOCC(N)=O (stereo not drawn) [FD] | 0.516 µM |
| CNC(=O)CNC(=O)C1C(O)CC2(O)CC(O)CC(O)C(O)CCC(O)CC(O)CC(=O)OC(C)C(C)C(O)C(C)C=CC=CC=CC=CC=CC=CC=CC(OC3OC(C)C(O)C(N)C3O)CC1O2 (stereo not drawn) [GN] | 0.344 µM |
| CC1C=CC=CC=CC=CC=CC=CC=CC(OC2OC(C)C(O)C(N)C2O)CC2OC(O)(CC(O)CC(O)C(O)CCC(O)CC(O)CC(=O)OC(C)C(C)C1O)CC(O)C2C(=O)N1CCNC(=O)C1 (stereo not drawn) [FH] | 0.531 µM |
| CC1C=CC=CC=CC=CC=CC=CC=CC(OC2OC(C)C(O)C(N)C2O)CC2OC(O)(CC(O)CC(O)C(O)CCC(O)CC(O)CC(=O)OC(C)C(C)C1O)CC(O)C2C(=O)NCCCS(N)(=O)=O (stereo not drawn) [EP] | 0.484 µM |
| CC1C=CC=CC=CC=CC=CC=CC=CC(OC2OC(C)C(O)C(N)C2O)CC2OC(O)(CC(O)CC(O)C(O)CCC(O)CC(O)CC(=O)OC(C)C(C)C1O)CC(O)C2C(=O)NC1C(O)OC(CO)C(O)C1O (mixture of isomers) [FK] | 0.211 µM |
| CC1C=CC=CC=CC=CC=CC=CC=CC(OC2OC(C)C(O)C(N)C2O)CC2OC(O)(CC(O)CC(O)C(O)CCC(O)CC(O)CC(=O)OC(C)C(C)C1O)CC(O)C2C(=O)NC1C(O)OCC(O)C1O (stereo not drawn) [FU] | 0.289 µM |
| CC1C=CC=CC=CC=CC=CC=CC=CC(OC2OC(C)C(O)C(N)C2O)CC2OC(O)(CC(O)CC(O)C(O)CCC(O)CC(O)CC(=O)OC(C)C(C)C1O)CC(O)C2C(=O)NC1C(O)OC(CO)C(O)C1O (mixture of isomers) [GL] | 0.344 µM |
| COCC(C)NC(=O)C1C(O)CC2(O)CC(O)CC(O)C(O)CCC(O)CC(O)CC(=O)OC(C)C(C)C(O)C(C)C=CC=CC=CC=CC=CC=CC=CC(OC3OC(C)C(O)C(N)C3O)CC1O2 (stereo not drawn) [EM] | 0.469 µM |

Same assay, conditions: Table 12, C16 amides of C2'epiAmB

| Structure (SMILES) | Average MIC |
| --- | --- |
| COC(=O)C(Cc1c[nH]cn1)NC(=O)C1C(O)CC2(O)CC(O)CC(O)C(O)CCC(O)CC(O)CC(=O)OC(C)C(C)C(O)C(C)C=CC=CC=CC=CC=CC=CC=CC(OC3OC(C)C(O)C(N)C3O)CC1O2 (stereo not drawn) [BX] | 9.073 µM |
| CC1C=CC=CC=CC=CC=CC=CC=CC(OC2OC(C)C(O)C(N)C2O)CC2OC(O)(CC(O)CC(O)C(O)CCC(O)CC(O)CC(=O)OC(C)C(C)C1O)CC(O)C2C(=O)NCCN (stereo not drawn) [BT] | 1.750 µM |
| CC1C=CC=CC=CC=CC=CC=CC=CC(OC2OC(C)C(O)C(N)C2O)CC2OC(O)(CC(O)CC(O)C(O)CCC(O)CC(O)CC(=O)OC(C)C(C)C1O)CC(O)C2C(=O)NCCC(N)=O (stereo not drawn) [BU] | 2.563 µM |
| CC1C=CC=CC=CC=CC=CC=CC=CC(OC2OC(C)C(O)C(N)C2O)CC2OC(O)(CC(O)CC(O)C(O)CCC(O)CC(O)CC(=O)OC(C)C(C)C1O)CC(O)C2C(=O)NC1CCC1 (stereo not drawn) [BW] | 5.563 µM |
